Literature values as cited in patent US20160113981A1, “TOPICAL COMPOSITION” (priority 2014, published 2016).

Assays:
[1] = equimolar dose of indomethacin
[2] = after topical application of lavender oil

Row | SMILES | anti-inflammatory effect compared with indomethacin [1] | time of peak in the blood [2] [min]
1 | CC1=CC[C@@]2(C)[C@H]([C@@H]1C)[C@H]1CC[C@@H]3[C@@]4(C)CC[C@H](O)C(C)(C)[C@@H]4CC[C@@]3(C)[C@]1(C)C[C@@H]2O [faradiol] | same effects as an equimolar dose of indomethacin | –
2 | C=CC(C)(CCC=C(C)C)OC(C)=O (stereo not drawn) [linalyl acetate] | – | 19
3 | C=CC(C)(O)CCC=C(C)C (stereo not drawn) [linalool] | – | 19
